The test system of this test is Cercospora arachidicola. Nature of the test: Peanut field trial, in-furrow soil application at planting, leafspot disease severity. The format is in vivo, Cercospora arachidicola on peanut (Arachis hypogaea). As to conditions: 63 days after planting, peanut Ga 09b, COMPOUND 1 SC450 200 g AI/ha, Fluopyram SC500 250 g AI/ha. As for the experimental part: A peanut field trial was carried out in […], Georgia, USA, to evaluate the efficacy of different compounds against the leafspot disease Cercospora arachidicola. Plot borders (peanuts) were planted in early May and left untreated until there was significant leafspot infection on the borders.
The peanuts were then planted in July and treatments applied in-furrow at the same day. The disease occurred mid of September and an assessment on disease severity (% infected area) was done 63 days after planting.
Pest Severity, 63 Days after Planting

The results in this text go back to patent US20230045196A1, “METHODS OF CONTROLLING OR PREVENTING INFESTATION OF PEANUT PLANTS BY PHYTOPATHOGENIC MICROORGANISMS” (SYNGENTA CROP PROTECTION AG, priority 2019, published 2023).

Consider `O=C(NCCc1ncc(C(F)(F)F)cc1Cl)c1ccccc1C(F)(F)F` [Fluopyram], for which the “% efficacy based on pest severity” value is on record as 52.64%. The “% efficacy based on pest severity” value (listed as commercial standard compound 2) was found to be 53%. Further, the “Pest severity (%)” value (% infected area) is recorded as 15,A %.
